The values that follow come from ChEMBL document CHEMBL5537127, “Design and synthesis of novel hederagonic acid analogs as potent anti-inflammatory compounds capable of protecting against LPS-induced acute lung injury” (Eur J Med Chem, 2024).

Data set [1] relates to RAW264.7. Put plainly: Anti-inflammatory activity against LPS-induced mouse RAW264.7 cells assessed as inhibition of NO production at 20 uM preincubated for 2 hrs followed by LPS addition and measured after 24 hrs by Griess reagent-based microplate reader analysis relative to control. Format: functional. Also on record: scale not given: the % may be the effect or the level left. To be noted: time 26 hrs. (In general: The Griess reaction detects nitrite, a stable product of nitric oxide.)

The test system of data set [2] is RAW264.7. In words: Anti-inflammatory activity against LPS-induced mouse RAW264.7 cells assessed as inhibition of NO production at 10 uM preincubated for 2 hrs followed by LPS addition and measured after 24 hrs by Griess reagent-based microplate reader analysis relative to control. Format: functional. Further details: scale not given: the % may be the effect or the level left. The note with it: time 26 hrs.

A short description of data set [3]: Cytotoxicity against mouse RAW264.7 cells assessed as cell viability at 40 uM incubated for 24 hrs by MTT assay relative to control. Format: toxicity, cell-based. To be noted: read-out: Activity.

Take `CC1(C)CC[C@]2(C(=O)OCc3ccccc3)CC[C@]3(C)C(=CC[C@@H]4[C@@]5(C)CCC(=O)[C@@](C)(COC(=O)CCCC[C@@H]6CCSS6)[C@@H]5CC[C@]43C)[C@@H]2C1`: the Activity came to 56.28% with RAW264.7 [1] and 29.81% with RAW264.7 [2]. Besides, in data set [3], the viability at 24 h, 40 µM amounted to 119%.
The corresponding values for `CC1(C)CC[C@]2(C(=O)OCc3ccccc3)CC[C@]3(C)C(=CC[C@@H]4[C@@]5(C)C/C(=C/c6cccc([N+](=O)[O-])c6)C(=O)[C@@](C)(CO)[C@@H]5CC[C@]43C)[C@@H]2C1` are 9.38%, 1.09% and 109%.
The corresponding values for `CC1(C)CC[C@]2(C(=O)OCc3ccccc3)CC[C@]3(C)C(=CC[C@@H]4[C@@]5(C)C/C(=C/c6cnccn6)C(=O)[C@@](C)(CO)[C@@H]5CC[C@]43C)[C@@H]2C1` are 5.02%, 4.56% and 3.34%.
For `CC1(C)CC[C@]2(C(=O)OCc3ccccc3)CC[C@]3(C)C(=CC[C@@H]4[C@@]5(C)CCC(=O)[C@@](C)(COC(=O)CCNC(=O)CCCC[C@@H]6CCSS6)[C@@H]5CC[C@]43C)[C@@H]2C1` the same measures were 62.67%, 43.82% and 99.4%.
Take `CC1(C)CC[C@]2(C(=O)OCc3ccccc3)CC[C@]3(C)C(=CC[C@@H]4[C@@]5(C)CCC(=O)[C@@](C)(COC(=O)CCC6CCCCC6)[C@@H]5CC[C@]43C)[C@@H]2C1`: the Activity in the data set with RAW264.7 [1] was 2.05%; in the data set on RAW264.7 [2], 0.64%. Moreover, the viability at 24 h, 40 µM in data set [3] came to 110%.
For `CC1(C)CC[C@]2(C(=O)OCc3ccccc3)CC[C@]3(C)C(=CC[C@@H]4[C@@]5(C)C/C(=C/c6cccc(Br)c6)C(=O)[C@@](C)(CO)[C@@H]5CC[C@]43C)[C@@H]2C1` the same measures were 3.82%, 3.77% and 94%.
As to `CC1(C)CC[C@]2(C(=O)OCc3ccccc3)CC[C@]3(C)C(=CC[C@@H]4[C@@]5(C)CCC(=O)[C@@](C)(COC(=O)CCc6c[nH]c7ccccc67)[C@@H]5CC[C@]43C)[C@@H]2C1`, the Activity in the data set on RAW264.7 [1] is 0.43%; in the data set on RAW264.7 [2] it was 0.17%. Also, the viability at 24 h, 40 µM in data set [3] is 107%.
On to `CC1(C)CC[C@]2(C(=O)OCc3ccccc3)CC[C@]3(C)C(=CC[C@@H]4[C@@]5(C)CCC(=O)[C@@](C)(COC(=O)CC#N)[C@@H]5CC[C@]43C)[C@@H]2C1`, for which the results for the Activity in the data set with RAW264.7 [1] and in the data set with RAW264.7 [2] were 57.99% and 40.79%, respectively. Further, the viability at 24 h, 40 µM in data set [3] turned out to be 93.1%.
For `CC1(C)CC[C@]2(C(=O)OCc3ccccc3)CC[C@]3(C)C(=CC[C@@H]4[C@@]5(C)CCC(=O)[C@@](C)(COC(=O)CCCCNC(=O)CCCC[C@@H]6CCSS6)[C@@H]5CC[C@]43C)[C@@H]2C1`, in data set [3], the viability at 24 h, 40 µM was found to be 31.6%.
The same measure, in the same setting: for `CC1(C)CC[C@]2(C(=O)OCc3ccccc3)CC[C@]3(C)C(=CC[C@@H]4[C@@]5(C)C/C(=C/c6ccc([N+](=O)[O-])cc6)C(=O)[C@@](C)(CO)[C@@H]5CC[C@]43C)[C@@H]2C1` the value was 119%.
With `CC1(C)CC[C@]2(C(=O)OCc3ccccc3)CC[C@]3(C)C(=CC[C@@H]4[C@@]5(C)CCC(=O)[C@@](C)(COC(=O)C(F)(F)F)[C@@H]5CC[C@]43C)[C@@H]2C1`, the viability at 24 h, 40 µM in data set [3] came out at 4.58%.
Same read-out and setting: for `CC1(C)CC[C@]2(C(=O)OCc3ccccc3)CC[C@]3(C)C(=CC[C@@H]4[C@@]5(C)CCC(=O)[C@@](C)(COC(=O)CCc6ccccc6)[C@@H]5CC[C@]43C)[C@@H]2C1` the value was 76.1%.
With `CC(C)=CC(=O)OC[C@]1(C)C(=O)CC[C@@]2(C)[C@H]1CC[C@]1(C)[C@@H]2CC=C2[C@@H]3CC(C)(C)CC[C@]3(C(=O)OCc3ccccc3)CC[C@]21C`, the Activity with RAW264.7 [1] came to 25.68%; in the data set on RAW264.7 [2] it was 16.39%. Also, the viability at 24 h, 40 µM in data set [3] was 95%.
Regarding `CC1(C)CC[C@]2(C(=O)OCc3ccccc3)CC[C@]3(C)C(=CC[C@@H]4[C@@]5(C)CCC(=O)[C@@](C)(COC(=O)CNC(=O)CCCC[C@@H]6CCSS6)[C@@H]5CC[C@]43C)[C@@H]2C1`, the Activity came out at 46.99% with RAW264.7 [1] and 28.81% in the data set with RAW264.7 [2]. Moreover, in data set [3], the viability at 24 h, 40 µM was 114%.
Consider `CC1(C)CC[C@]2(C(=O)OCc3ccccc3)CC[C@]3(C)C(=CC[C@@H]4[C@@]5(C)C/C(=C/c6cccs6)C(=O)[C@@](C)(CO)[C@@H]5CC[C@]43C)[C@@H]2C1`, for which the viability at 24 h, 40 µM in data set [3] is 72.1%.
The same measure, in the same setting: the result for `CC1(C)CC[C@]2(C(=O)OCc3ccccc3)CC[C@]3(C)C(=CC[C@@H]4[C@@]5(C)CCC(=O)[C@@](C)(COC(=O)CNC(=O)CNC(=O)CCCC[C@@H]6CCSS6)[C@@H]5CC[C@]43C)[C@@H]2C1` reads 78.5%.
For the compound `CC1(C)CC[C@]2(C(=O)OCc3ccccc3)CC[C@]3(C)C(=CC[C@@H]4[C@@]5(C)C/C(=C/c6nccs6)C(=O)[C@@](C)(CO)[C@@H]5CC[C@]43C)[C@@H]2C1`, the viability at 24 h, 40 µM in data set [3] came out at 62.8%.
The same measure, in the same setting: the result for `CC1(C)CC[C@]2(C(=O)OCc3ccccc3)CC[C@]3(C)C(=CC[C@@H]4[C@@]5(C)C/C(=C/c6cscn6)C(=O)[C@@](C)(CO)[C@@H]5CC[C@]43C)[C@@H]2C1` reads 85%; that for `CC1(C)CC[C@]2(C(=O)OCc3ccccc3)CC[C@]3(C)C(=CC[C@@H]4[C@@]5(C)C/C(=C/c6cncs6)C(=O)[C@@](C)(CO)[C@@H]5CC[C@]43C)[C@@H]2C1`, 64.8%.
With `CC1(C)CC[C@]2(C(=O)OCc3ccccc3)CC[C@]3(C)C(=CC[C@@H]4[C@@]5(C)C/C(=C/c6ccccc6Br)C(=O)[C@@](C)(CO)[C@@H]5CC[C@]43C)[C@@H]2C1`, the Activity is reported as 12.61% in the data set on RAW264.7 [1] and 5.33% in the data set with RAW264.7 [2]. Besides, the viability at 24 h, 40 µM in data set [3] was determined as 92.2%.
Regarding `CC1(C)CC[C@]2(C(=O)OCc3ccccc3)CC[C@]3(C)C(=CC[C@@H]4[C@@]5(C)C/C(=C/c6ccsc6)C(=O)[C@@](C)(CO)[C@@H]5CC[C@]43C)[C@@H]2C1`, the viability at 24 h, 40 µM in data set [3] is 66.9%.
The same measure, in the same setting: for `CC1(C)CC[C@]2(C(=O)OCc3ccccc3)CC[C@]3(C)C(=CC[C@@H]4[C@@]5(C)CCC(=O)[C@@](C)(COC(=O)CCN6CCCCC6)[C@@H]5CC[C@]43C)[C@@H]2C1` the value was 3.82%; for `CC1(C)CC[C@]2(C(=O)O)CC[C@]3(C)C(=CC[C@@H]4[C@@]5(C)CCC(=O)[C@@](C)(CO)[C@@H]5CC[C@]43C)[C@@H]2C1`, 109%.
As for `CC(=O)CCC(=O)OC[C@]1(C)C(=O)CC[C@@]2(C)[C@H]1CC[C@]1(C)[C@@H]2CC=C2[C@@H]3CC(C)(C)CC[C@]3(C(=O)OCc3ccccc3)CC[C@]21C`, the Activity in the data set on RAW264.7 [1] is reported as 59.4%; in the data set with RAW264.7 [2], 43.51%. Besides, the viability at 24 h, 40 µM in data set [3] stood at 106%.
In the case of `CC1(C)CC[C@]2(C(=O)OCc3ccccc3)CC[C@]3(C)C(=CC[C@@H]4[C@@]5(C)C/C(=C/c6ccccc6)C(=O)[C@@](C)(CO)[C@@H]5CC[C@]43C)[C@@H]2C1`, the viability at 24 h, 40 µM in data set [3] stood at 68.1%.
